# How the values were obtained:
# [1] = Measurement of oxidation induction time (OIT) by DSC; type: physicochemical; conditions: with liquid polyisoprene LIR-50, isothermal 180° C., switch from N2 to O2 atmosphere 50 mL/min, DSC peak; measuring accuracy ± 10 min
# Method: The compound of formula II) was investigated under laboratory conditions for its potential protective effect as an aging stabilizer by measurement of the oxidation induction time.
# To this end the compounds of formula II) and 6-PPD in each case together with a polymer (liquid synthetic polyisoprene (IR), LIR-50, Kuraray, weight average molecular weight distribution Mw=54 000 g/mol, glass transition temperature Tg=−63° C.) were heated at constant temperature (180° C.) until onset of oxidation (start temperature 35° C., heating to 170° C. at a heating rate of 20 K/min (kelvin per minute), heating to 180° C. at a heating rate of 1 K/min; purge gas: nitrogen (N2), volume flow 50 mL/min).
# The specimen was isothermally maintained at 180° C. under an N2 atmosphere and the atmosphere was then switched to an O2 atmosphere (volume flow 50 mL/min).
# Oxidation was determined via a peak using DSC (differential scanning calorimetry).
# The time in minutes to oxidation was measured.
# [2] = basic structure compared with aniline; cited from earlier work
Compound,Time to oxidation (oxidation induction time) [1] [min],Genotoxicity / mutagenicity according to safety data sheet [2]
"CC(C)CC(C)Nc1ccc2[nH]c3ccccc3c(=O)c2c1 (stereo not drawn) [Compound of formula II), 2-(1,3-dimethylbutylamino)-acridine-9(10H)-one]",259 ± 10,–
"CC(C)CC(C)Nc1ccc(Nc2ccccc2)cc1 (stereo not drawn) [6-PPD, N-(1,3-dimethylbutyl)-N′-phenyl-p-phenylenediamine]",116 ± 10,–
acridinone,–,neither genotoxic nor mutagenic

# — patent publication US20250100972A1, “COMPOUND, RUBBER BLEND CONTAINING THE COMPOUND, VEHICLE TIRE COMPRISING THE RUBBER BLEND IN AT LEAST ONE COMPONENT, PROCESS FOR PRODUCING THE COMPOUND, AND USE OF THE COMPOUND AS AN AGEING PROTECTANT AND/OR ANTIOZONANT AND/OR DYE” (Continental Reifen Deutschland GmbH, priority 2021, published 2025)
